Patent publication US20130023045A1, “INDUCED HEPATIC STEM CELL AND PROCESS FOR PRODUCTION THEREOF, AND APPLICATIONS OF THE CELL” (NATIONAL CANCER CENTER, priority 2010, published 2013)

System: induced human hepatic stem cells (AFB1-1, NGC1-2)
Assay: Long-term passage culture of induced human hepatic stem cells
Format: cell-based
Settings: addition of 0.05-0.5 μM to the medium, passage culture for six months or longer
Source text: Induced human hepatic stem cells (AFB1-1, NGC1-2) were subjected to passage culture for six months or longer. The exemplary medium used includes mTeSR1 (STEMCELL Technologies/VERITAS), a bFGF-supplemented medium for primate ES/iPS cells (ReproCELL), or bFGF-supplemented ReproStem (ReproCELL). In the case of using MEFs, a collagen- or gelatin-coated culture dish was used, and in the case of not using MEFs, a matrigel-coated culture dish was used.

Cc1cccc(-c2nn(C(=S)Nc3ccccc3)cc2-c2ccnc3ccccc23)n1 [A-83-01] was tested, and the “proliferation rate and morphology” value was “highly satisfactory proliferation rate and morphology” and the “self-replication of induced human hepatic stem cells” value was “useful for self-replication of induced human hepatic stem cells”.
